Earlier results as cited in patent publication US20110300232A1, “EFFECTS OF NITRIC OXIDE (NO) AND iNOS ON EXPRESSION AND SIGNAL TRANSDUCTION IN CANCER AND ITS USE IN DRUG DISCOVERY AND CANCER THERAPY DESIGN” (priority 2010, published 2011).

Tests used:
HIF-α = conditions: for effect on HIF-α expression: NO donor exposure, FIG. 4A and 4B, MCF-7
[1] = not given; remark: listed apart in the source
p53 = conditions: high levels of NO

Row | Structure (SMILES) | effect on HIF-α expression (HIF-α) | duration of NO level provided in media | NO concentration required for HIF-α stabilization (HIF-α; low concentration of NO) | half-life in the body [1] [s] | NO level that stimulates p53 activation, causing apoptosis (p53)
1 | NCCN(CCN)/[N+]([O-])=N/O [DETA/NO] | stabilizing the HIF-α expression | several hours | – | – | –
2 | NCCCNCCCCN(CCCN)/[N+]([O-])=N/O [Sper/NO] | stabilizing the HIF-α expression | several hours | – | – | –
3 | [N]=O [NO, Nitric oxide] | – | – | 100-200 nm | 1 to 5 | more than 500 nm
4 | CCN(CC)/[N+]([O-])=N/[O-].[Na+] [DEA/NO] | did not regulate HIF-α expression | only an hour | – | – | –
